Format in all cases: physicochemical
Data set [1] in a line: In vitro therapeutic agent release (USP Dissolution Test Method II, 0.05M isotonic phosphate buffer pH 6.0 with 30 weight percent PEG 400). The conditions noted are these: for In vitro release of 17 β-estradiol: Example 17 carrier (Table XIX, mannitol); for In vitro release of therapeutic agent: 20 mg piroxicam.
Test in data set [2]: as above
As to conditions: for In vitro release of 17 β-estradiol: Example 17 carrier (Table XIX, mannitol); for Therapeutic Agent Release Parameter, T, 20% / Therapeutic Agent Release Parameter, T, 50% / Therapeutic Agent Release Parameter, T, 75% / Therapeutic Agent Release Parameter, T, 90%: Example 7 carrier (Table VII), 20 mg agent, agent:PEG 8000 1:2; for In vitro release of dehydroepiandrosterone: Example 12 carrier, 5 mg DHEA. As for the experimental part:
Therapeutic agent release studies were conducted using an Erweka dissolution test assembly in compliance with Dissolution Test Method II as described in The United States Pharmacopeia, 24th revision (USP XXIV). Five hundred milliliters of a 0.1M phosphate buffer dissolution fluid was maintained at about 37° C. (about 100° F.) and the […] was rotated at 50 revolutions per minute (rpm). At predetermined time points, samples of approximately 3 milliliters of the test medium were withdrawn from the flasks and immediately replaced with an equivalent volume of blank buffer. Analysis of the samples was performed by ultraviolet spectrophotometry. […] The time to achieve 20%, 50% and 80% by weight dissolution of the piroxicam was estimated from a linear plot of percent dissolved versus time.
Therapeutic agent release testing was conducted by the USP Dissolution Test Method II. The dissolution medium chosen was 500 ml of a 0.05M isotonic phosphate buffer having a 6.0 pH with 30 weight percent PEG 400.
An equivalent of 20 mg of albuterol in a mucosal composition of a albuterol:PEG 8000 weight in a ratio of 1:2 was included in each carrier. […] Plots of weight percent therapeutic agent released versus time were constructed and the drug release parameter T (in hours) for a given weight and percent drug released was calculated from the plots.

Data set [3] in a line: Saturation solubility in phosphate buffer. The conditions noted are these: 0.1m phosphate buffer, aqueous buffer.

Values after ≈ are worked out from the molar mass of the structure shown.

On to `C[C@]12CC[C@@H]3c4ccc(O)cc4CC[C@H]3[C@@H]1CC[C@@H]2O` [17 β-estradiol], for which the Order of release entry in data set [1] (Example 10 carrier, 17 β-estradiol) is listed as “apparent zero order process”. Besides, the “In vitro release of 17 β-estradiol” value in data set [1] (15 hours) was determined as 17 weight percent; in data set [1] (20 hours), 19.5 weight percent; in data set [2] (5 hours) it was 9.5 weight percent; in data set [2] (10 hours) it was 15 weight percent. The “In vitro release of therapeutic agent” value in data set [2] (Example 10 carrier, 17 β-estradiol, 1 hour) is on record as 2.5 weight percent; in data set [2] (Example 10 carrier, 17 β-estradiol, 2 hours) it was 4 weight percent; in data set [2] (Example 10 carrier, 17 β-estradiol, 5 hours), 9.5 weight percent; in data set [2] (Example 10 carrier, 17 β-estradiol, 24 hours), 46.3 weight percent.

Broadly, the solubility is how much of the substance goes into solution per volume. A higher solubility goes with a readily soluble substance. Consider `CN1C(C(=O)Nc2ccccn2)=C(O)c2ccccc2S1(=O)=O` [piroxicam], for which the “In vitro release of therapeutic agent” value in data set [1] (Example 9 carrier, three hours) is 13 weight percent; in data set [1] (Example 9 carrier, two hours), 9 weight percent; in data set [2] (Example 9 carrier, 20 mg piroxicam, 6 hours) it was 24.1 weight percent; in data set [2] (Example 9 carrier, 20 mg piroxicam, 23 hours), 56 weight percent; in data set [2] (Example 9 carrier, 20 mg piroxicam, one hour), 5 weight percent. In addition, the “Therapeutic agent remaining in the carrier” value in data set [1] (Example 9 carrier, piroxicam, after 23 hours) is listed as 36-47 weight percent. The Order of release entry in data set [2] (Example 9 carrier, piroxicam) is recorded as “apparent zero order rate”. The same compound yielded a solubility in data set [3] of roughly 7700 µg/mL (≈ 23.2 mM).

In the case of `CC(C)(C)NCC(O)c1ccc(O)c(CO)c1` (stereo not drawn) [Albuterol], the “Therapeutic Agent Release Parameter, T, 20%” value in data set [2] was determined as 0.58 h. Further, the “Therapeutic Agent Release Parameter, T, 50%” value in data set [2] was 3.16 h. For the same compound, in data set [2], the “Therapeutic Agent Release Parameter, T, 75%” value is 5.67 h. For the same compound, the “Therapeutic Agent Release Parameter, T, 90%” value in data set [2] is 6.83 h. Besides, the “Time to release 20% by weight of albuterol” value in data set [2] (Example 13 carrier (Table XV)) is recorded as “approximately 0.8 hr”; in data set [2] (Example 14 carrier (Table XVI)), “approximately 1 hr”. The “Time to release 50% by weight of albuterol” value in data set [2] (Example 13 carrier (Table XV)) is roughly 2.6 h; in data set [2] (Example 14 carrier (Table XVI)) it was roughly 3.5 h. The entries for the “Time to release 75% by weight of albuterol” value in data set [2] (Example 13 carrier (Table XV)) and in data set [2] (Example 14 carrier (Table XVI)) were roughly 6 h and roughly 8 h, respectively. In addition, the “Time to release 90% by weight of albuterol” value was roughly 10.5 h in data set [2] (Example 13 carrier (Table XV)) and roughly 15 h in data set [2] (Example 14 carrier (Table XVI)). In addition, the “In vitro release of albuterol” value in data set [2] (Example 15 carrier (Table XVII), 3 hours) is reported as 22 weight percent; in data set [2] (Example 15 carrier (Table XVII), 7.5 hours) it was 50 weight percent; in data set [2] (Example 15 carrier (Table XVII), 12 hours) it was 75 weight percent; in data set [2] (Example 15 carrier (Table XVII), 18 hours), 90 weight percent; in data set [2] (Example 16 carrier (Table XVIII), 2 hours), 27 weight percent; in data set [2] (Example 16 carrier (Table XVIII), 5 hours), 50 weight percent. Besides, the “In vitro release of albuterol” value amounted to 73 weight percent in data set [2] (Example 16 carrier (Table XVIII), 10 hours) and 90 weight percent in data set [2] (Example 16 carrier (Table XVIII), 19 hours).

As to `CC(N)C(O)c1ccccc1` (stereo not drawn) [Phenylpropanolamine], in data set [2], the “Therapeutic Agent Release Parameter, T, 20%” value worked out at 0.58 h; the “Therapeutic Agent Release Parameter, T, 50%” value turned out to be 2.83 h; the “Therapeutic Agent Release Parameter, T, 75%” value was 6.04 h; the “Therapeutic Agent Release Parameter, T, 90%” value turned out to be 8.42 h.

Turning to `C[C@]12CC[C@H](O)CC1=CC[C@@H]1[C@@H]2CC[C@]2(C)C(=O)CC[C@@H]12` [dehydroepiandrosterone], the “In vitro release of dehydroepiandrosterone” value in data set [2] (6 hours) came to 20 weight percent; in data set [2] (10.5 hours), 30 weight percent; in data set [2] (13 hours), 40 weight percent; in data set [2] (23 hours) it was 50 weight percent.

These data come from patent US5047244A, “Mucoadhesive carrier for delivery of therapeutical agent” (priority 1988, dated 1991).
